Test [1] deals with HeLa cells. As to the kind of experiment: hyperspectral imaging of CNOR emission in live HeLa cells. The test is classed as cell-based. The conditions noted are these: for effect on blue-shifting of CNOR emission: HeLa cells, relative to control. The protocol: Cell Lines and Cell Culture Procedures: HeLa CCL-2 cells (ATCC, Manassas, Va., US) were grown under standard incubation conditions at 37° C. and 5% CO2 in sterile-filtered DMEM with 10% heat-inactivated FBS, 2.5% HEPES, 1% Glutamine, and 1% Penicillin/Streptomycin (all Gibco). For studies performed with homozygous mutant NPC, compound mutant heterozygote NPC, or wild-type fibroblasts, the cell lines GM18453, GM03123 or GM05659 (Coriell, Camden, N.J., US), respectively, were cultured in MEM with 10% FBS, 2.5% HEPES, and 1% Glutamine. Cells were plated on glass-bottom petri dishes, or lysine-covered glass dishes (MatTek) for fibroblasts. Unpurified SWCNT were incubated at 1 mg/L and separated SWCNT were incubated at 0.25 mg/L in media with cells for 30 minutes at 37° C. Depending on the experiment, cells were imaged immediately, or trypsinized (Gibco) and re-plated on a fresh glass-bottom petri dish followed by hyperspectral imaging. Pharmacological treatments on HeLa cells were performed with Nocodazole (Sigma, 10 μg/mL added after SWCNT incubation) or U18666A (Sigma, 3 μg/mL added 6 hours prior to SWCNT incubation). Fibroblast cells were incubated with hydroxypropyl-β-cyclodextrin (Sigma, 100 μM) 6 hours prior to SWCNT incubation. Cells were incubated for 30 minutes with 0.25 mg/L of the SWCNTs before rinsing and replacing with fresh media. Hyperspectral imaging was conducted immediately afterwards and 24 hours later. A DNA-encapsulated nanotube complex, undergoing a continuous solvatochromic shifting response, spatially and temporally tracked endosomal maturation in live HeLa cells. Separated (8,6) nanotubes encapsulated by an ss(GT)6 oligonucleotide, with a median length of 236 nm, were incubated with HeLa cells at 0.25 mg/L for 30 minutes before rinsing and replacing with fresh media. The wavelength distribution of the nanotube complex in endosomes, measured immediately after uptake, was centered at 1200.7±0.4 nm, near the bulk value observed in water. In lysosomes, after 6 hours post-incubation, the wavelength distribution broadened before blue-shifting to 1194.3±0.7 nm at the 24-hour timepoint (FIG. 2, panel A). A small red-shifted nanotube population, with a mean wavelength of 1205 nm, appeared at the 6-hour time point but disappeared by 24 hours. The relative mean wavelength of each emissive region of interest (ROI) was laid over a transmitted light image of the cells, resulting in spatial visualization of the spectral distribution (FIG. 2, panel B). […] The interaction of GT6-(8,6) nanotubes with RAW 264.7 macrophages was characterized, by incubating 2 pM of nanotubes in cell media for 30 minutes at 37° C. Under these conditions, the majority of cells efficiently took up nanotubes via energy-dependent mechanisms.

For test [2], the system named is HeLa cells. As to the kind of experiment: filipin staining of unesterified cholesterol in HeLa cells. The conditions noted are these: fixed HeLa cells, versus control. It counts as cell-based.
Experimental: Filipin staining was conducted by fixing cells with 1.5% paraformaldehyde in PBS for 20 minutes. Cells were then labeled with 50 μg/mL filipin for 45 minutes. After washing, filipin images were acquired using 350/50 nm excitation and 460/50 mm emission filters with a 400 nm dichroic long-pass filter (Olympus).
The subject of the next test is RAW 264.7 macrophages. Kind of test: CNOR emission in RAW 264.7 macrophages (lysosomal lipid accumulation). The test is classed as cell-based. The conditions noted are these: for blue shift compared with control macrophages: DMEM+10% FBS, U18666A, 10 uM Lalistat. The protocol:
A DNA-encapsulated nanotube complex, undergoing a continuous solvatochromic shifting response, spatially and temporally tracked endosomal maturation in live HeLa cells. Separated (8,6) nanotubes encapsulated by an ss(GT)6 oligonucleotide, with a median length of 236 nm, were incubated with HeLa cells at 0.25 mg/L for 30 minutes before rinsing and replacing with fresh media. The wavelength distribution of the nanotube complex in endosomes, measured immediately after uptake, was centered at 1200.7±0.4 nm, near the bulk value observed in water. In lysosomes, after 6 hours post-incubation, the wavelength distribution broadened before blue-shifting to 1194.3±0.7 nm at the 24-hour timepoint (FIG. 2, panel A). A small red-shifted nanotube population, with a mean wavelength of 1205 nm, appeared at the 6-hour time point but disappeared by 24 hours. The relative mean wavelength of each emissive region of interest (ROI) was laid over a transmitted light image of the cells, resulting in spatial visualization of the spectral distribution (FIG. 2, panel B). […] The interaction of GT6-(8,6) nanotubes with RAW 264.7 macrophages was characterized, by incubating 2 pM of nanotubes in cell media for 30 minutes at 37° C. Under these conditions, the majority of cells efficiently took up nanotubes via energy-dependent mechanisms.
RAW macrophages were incubated in lipoprotein depleted serum (LPDS) for 24 hours. Incubation in these conditions reduces the lipid content of the lysosomes and increases the number of surface receptors for acetylated LDL (Ac-LDL) on the cell surface. To induce lipid accumulation in the lysosomes, Ac-LDL and U18666A (a cholesterol transport inhibitor) were introduced to cells incubating in the lipoprotein depleted serum. […]
The reporter detected Wolman's disease, a lysosomal storage disorder characterized by the accumulation of esterified cholesterol in the lysosomes due to a non-functioning lysosomal acid lipase (LAL). […]

The subject of test [3] is NPC fibroblasts (homozygous mutation of the NPC1 gene). As to the kind of experiment: CNOR emission in homozygous NPC patient fibroblasts. The test is classed as cell-based, human. The protocol: (§1) Cell Lines and Cell Culture Procedures: HeLa CCL-2 cells (ATCC, Manassas, Va., US) were grown under standard incubation conditions at 37° C. and 5% CO2 in sterile-filtered DMEM with 10% heat-inactivated FBS, 2.5% HEPES, 1% Glutamine, and 1% Penicillin/Streptomycin (all Gibco). For studies performed with homozygous mutant NPC, compound mutant heterozygote NPC, or wild-type fibroblasts, the cell lines GM18453, GM03123 or GM05659 (Coriell, Camden, N.J., US), respectively, were cultured in MEM with 10% FBS, 2.5% HEPES, and 1% Glutamine. Cells were plated on glass-bottom petri dishes, or lysine-covered glass dishes (MatTek) for fibroblasts. Unpurified SWCNT were incubated at 1 mg/L and separated SWCNT were incubated at 0.25 mg/L in media with cells for 30 minutes at 37° C. Depending on the experiment, cells were imaged immediately, or trypsinized (Gibco) and re-plated on a fresh glass-bottom petri dish followed by hyperspectral imaging.
Pharmacological treatments on HeLa cells were performed with Nocodazole (Sigma, 10 μg/mL added after SWCNT incubation) or U18666A (Sigma, 3 μg/mL added 6 hours prior to SWCNT incubation). […]
Niemann Pick Type-C(NPC) is a lysosomal storage disorder characterized by massive accumulation of unesterified cholesterol in the lysosomes of patient fibroblasts. […]

Test [4] deals with NPC1 fibroblasts (compound heterozygous mutations of the NPC1 gene). Kind of test: reporter emission in compound heterozygous NPC1 patient fibroblasts. It counts as cell-based, human. The protocol:
as §1
In a similar procedure to the experiment with homozygous NPC cells, fibroblasts with the compound heterozygous mutation of the NPC1 gene were plated on a poly-d-lysine-coated glass-bottomed petri-dish and imaged at different time points after an initial 30 minute incubation with the SWCNTs. Histograms of the wavelength distribution profile of the SWCNTs were obtained. […]

From patent US10401295B2, “Composition and method for monitoring lipid” (Memorial Sloan-Kettering Cancer Center, priority 2014, dated 2019) come the findings set out here.

Consider `Cl.N` [NH4Cl], for which the “effect on CNOR emission populations” value with HeLa cells [1] (50 mM added 6 hours after incubation with the CNOR) is “blue-shifted population remained unaffected while the red-shifted population was depleted”.
With `CCN(CC)CCO[C@H]1CC[C@@]2(C)C(=CC[C@@H]3[C@@H]2CC[C@]2(C)C(=O)CC[C@@H]32)C1` [U18666A], in the test on HeLa cells [2], the “intensity of filipin in the cell interior” value is recorded as “increased greatly”. Besides, the “further increase in blue shift than in untreated control cells” value in the test with HeLa cells [1] (3 μg/mL for six hours before incubation with the CNOR, at 24 hours) turned out to be 3.8±0.7 nm. The “effect on blue-shifting of CNOR emission” value in the test with HeLa cells [1] is given as “enhanced”. The “blue shift compared with control macrophages” value with RAW 264.7 macrophages is roughly 8 nm. In the test on RAW 264.7 macrophages (RAW 264.7 macrophages), the “CNOR blue-shift in drug-treated cells relative to drug-free control” value turned out to be 11.1±1.1 nm.
Take `COC(=O)Nc1nc2ccc(C(=O)c3cccs3)cc2[nH]1` [nocodazole]: in the test on HeLa cells [1], the “effect on blue-shifting of CNOR emission” value was “prevented the blue-shifting”. Further, the “mean CNOR emission” value with HeLa cells [1] (nocodazole 10 μg/mL, up to 24 hours after internalization, control 1194.28±0.73) came out at 1200.07±1.4 nm.
As to Lalistat, in the test with RAW 264.7 macrophages, the “blue shift compared with control macrophages” value was roughly 8 nm.
Regarding hydroxypropyl-β-cyclodextrin [HPβCD], the “effect on CNOR blue-shift in NPC cells” value in test [3] (HPβCD for additional 24 hours, after imaging at 24 hours) is “reversal of the CNOR blue-shift”. In addition, the “effect of pre-treatment on CNOR fluorescence shifting in diseased cells” value in test [3] (pre-treatment before CNOR incubation) is recorded as “prevented CNOR fluorescence from shifting”. Also, in test [4] (100 uM for 24 hours, 24 hours after nanotube addition), the “red-shift of nanotube emission” value was “approximately 4 nm”. Moreover, the “emission in pretreated NPC1 cells versus WT fibroblasts” value in test [4] (pre-treated 24 hours prior to nanotube addition) is listed as “identical emission values”.
